For one series, the system named is CD8+ T cells. The series can be described thus: WT-1 peptide specific CTL responses in vivo (ELISPOT). The settings on record: mouse. Here is the method: Mouse footpads of C57BL/6 or BALB/c, depending on the peptide specificity, are injected with the various OVA constructs in the presence or absence of adjuvant (Titermax, Sigma) along with appropriate control groups. Serum from immunized animals is obtained via retro-orbital bleeding and assayed for SWNT specific Abs using the ELISA protocol described above.
HA-Multiscreen plates were coated with rat-anti-mouse IFN-g antibody (MabTech). CD8+ T cells isolated and purified from the paplitial lymph nodes of immunized animals are plated, and APCs from a non-immunized mouse are isolated, irradiated, pulsed with peptides, and added to the CD8+ T cells at an E:T ratio of 1:4. The cellular mixture is incubated overnight at 37° C. and the plates were developed the next day using an antibody against rat IgG. Spots were counted using a computer assisted video image analyzer with KS ELISPOT 4.0 software (Carol Zeiss Vision, Germany).
A few of these peptides were screened for their ability to elicit WT-1 peptide specific CTL responses in vivo using the methods described above.

Another series has as its system GFP1/FFLuc1 Daudi tumor. The experiment in a line: Biodistribution and tumor targeting in disseminated lymphoma model. The class given is in vivo. The settings on record: 24 h after i.v. injection, tumor-bearing scid mice. Here is the method: The specific SWNT-rituximab-^111In*DOTA construct or control SWNT-HuM195-^111In*DOTA (Lintuzumab) construct was prepared by adding 111-185 MBq of acidic 111In chloride to 0.50 mg of SWNT-rituximab-DOTA or SWNT-HuM195-DOTA (50 g/L) in MFW and 0.050 mL of 3 M ammonium acetate to yield a pH 5.5 solution. The reaction mixture was maintained at ambient temperature for 30 min and then purified using a 10DG column with 1% HSA/0.9% NaCl. The radiochemical purity of SWNT-rituximab-DOTA or SWNT-HuM195-DOTA was 95% and the radiolabeled Rituximab was 98% as determined by the ITLC-SG methods described herein.
The biodistribution and tumor targeting specificity of SWNT-rituximab-^111In*DOTA was evaluated against different controls in a murine model of disseminated lymphoma (33) using the GFP1/FFLuc1 Daudi cell line. The tumor was introduced by injecting 5 million cells into each of the female C.B.-17 severe combined immunodeficiency (scid) mice (8- to 10-wk old; Taconic Farms) intravenously via the retroorbital sinus route. Tumor growth in mice was determined by BLI using a Xenogen IVIS Optical Imaging System (Xenogen Corp.). Imaging was performed on mice that received an intraperitoneal injection of 3 mg of D-Luciferin (Xenogen) per mouse. On day 28 after tumor infusion, the tumor-bearing mice were separated into 4 groups; an additional 2 groups of scid mice with no tumor were included as control. […]

A further series relates to Daudi (CD20+, specific). The settings on record: reference (33); cited from earlier work.
Another series has as its system serum antibodies. The experiment in a line: Competition study of serum antibodies to SWNT. The series is classed as binding, Balb/c mice. The settings on record: high concentrations (>0.1 mg/ml).
For the next series, the system named is peptide pulsed APCs. The series can be described thus: ^51Cr cytotoxicity assay. The series is classed as cell-based, mouse. Conditions: E:T ratios 1:60-1:7, 4 hours. Here is the method:
To detect the cytotoxic nature of the activated CD8+ T cells peptide specific CD8+ cells and irradiated peptide pulsed APCs were prepared as described above. The peptide sensitized APCs were labeled with 100 μCi of ^51Cr and incubated together with the CD8+ cells at E:T ratios varying from 1:60-1:7. After incubation together for 4 hours, supernatants were harvested and measured in a gamma counter.

The next series relates to tumor expressing cells. Conditions: previous reports; cited from earlier work.

This is an account of results in patent publication US10406236B2, “Single wall nanotube constructs and uses thereof” (Sloan-Kettering Institute for Cancer Research, priority 2005, dated 2019).

As to SYLESQPTI [WTI-136A], in the series on CD8+ T cells, the “immune response (WT-1 peptide specific CTL response in vivo)” value (“immune response” below) is “robust immune response” and the “stimulation of CD8+ T cells that cross react with the native sequence” value (“stimulation” for short) was “stimulated CD8+ T cells that cross reacted with the native sequence”.

As for “[111In]Rituximab: ^111In-labeled Rituximab targeting antibody, positive control”, the “femur % ID/g” value with GFP1/FFLuc1 Daudi tumor came out at 11.4±3.32 % ID/g. Besides, in the series on Daudi (CD20+, specific), the “immunoreactive fraction measured previously” value was 42%±17%.

Regarding AYLPAVSSL [WTI-10A], in the series with CD8+ T cells, the “immune response” value is recorded as “robust immune response” and the “stimulation” value is on record as “stimulated CD8+ T cells that cross reacted with the native sequence”.

In the case of ALLPAVSSL [WTI-10], in the series on CD8+ T cells, the “stimulation” value is “unable”.

On to `O=C(O)CCCC[C@@H]1SC[C@@H]2NC(=O)N[C@@H]21` [biotin], for which, in the series on serum antibodies, the “inhibition of serum antibodies” value is “did not”.

With SCLESQPTI [WTI-136], in the series with CD8+ T cells, the “stimulation” value is listed as “unable”.

For the compound CMTWNQMNM [WTI-235A], in the series with peptide pulsed APCs, the heteroclitic response result is given as “able to stimulate a heteroclitic response” and the “killing of peptide pulsed targets by CD8+ T cells” value was “killed pulsed targets”. In the series with CD8+ T cells, the “immune response” value was “robust immune response” and the “stimulation” value is “stimulated CD8+ T cells that cross reacted with the native sequence”.

With CMTWNQMNL [WTI-235], the “stimulation” value in the series on CD8+ T cells is “unable”. Moreover, the “ability to kill tumor expressing cells or to produce a successful vaccine” value in the series with tumor expressing cells is on record as “limited ability”.

RYFPNAPYL [WTI-126A]: in the series with peptide pulsed APCs, the heteroclitic response entry is given as “able to stimulate a heteroclitic response” and the “killing of peptide pulsed targets by CD8+ T cells” value is listed as “killed pulsed targets”.
